Values after ≈ are worked out from the molar mass of the structure shown. Like-named read-outs stand apart in the source and are kept apart here.
Assays:
S. aureus SA0085 [1] = conditions: for MIC values: Table S1: SA0085 Abf (passages on antibiotic-free media)
S. aureus SA0422 [2] = test system: S. aureus SA0422
[3] = test system: S. aureus derivative strains; conditions: for MIC: daptomycin-selected derivative strains without WalK mutations (all except SA0422), susceptible
S. aureus RN4220 [4] = test system: S. aureus RN4220
S. aureus ATCC 29213 [5] = test system: S. aureus ATCC 29213
S. aureus SA0077 [6] = conditions: for MIC values: Table S1: SA0077 Abf (passages on antibiotic-free media)
S. aureus SA0736 [7] = test system: S. aureus SA0736
S. aureus SA0736 [8] = assay: microbe, parasite or virus in culture; conditions: Staphylococcus aureus
S. aureus RN4220 [9] = assay: microbe, parasite or virus in culture; conditions: Staphylococcus aureus, RN4220, read-out: MIC values
S. aureus SA0085 [10] = assay: microbe, parasite or virus in culture; conditions: Staphylococcus aureus
S. aureus ATCC 29213 [11] = assay: microbe, parasite or virus in culture; conditions: Staphylococcus aureus, ATCC29213, read-out: MIC values
S. aureus SA0422 [12] = assay: microbe, parasite or virus in culture; conditions: Staphylococcus aureus
S. aureus SA0077 [13] = assay: microbe, parasite or virus in culture; conditions: Staphylococcus aureus
[14] = SA0085, selecting agent DAP, passage 5
[15] = SA0085, selecting agent DAP, passage 40
[16] = SA0085, selecting agent VAN, passage 0
[17] = SA0085, selecting agent VAN, passage 5
[18] = SA0085, selecting agent VAN, passage 20
[19] = SA0085, selecting agent VAN, passage 40
[20] = SA0422, selecting agent DAP, passage 5
[21] = SA0422, selecting agent DAP, passage 20
[22] = SA0422, selecting agent DAP, passage 40
[23] = SA0422, selecting agent VAN, passage 0
[24] = SA0422, selecting agent VAN, passage 5
[25] = SA0422, selecting agent VAN, passage 20
[26] = SA0422, selecting agent VAN, passage 40
[27] = Table S1: RN4220 ∆ (strain with deletion in SACOL1927)
[28] = ATCC 29213, selecting agent DAP, passage 5
[29] = ATCC 29213, selecting agent DAP, passage 20
[30] = ATCC 29213, selecting agent DAP, passage 40
[31] = ATCC 29213, selecting agent VAN, passage 0
[32] = ATCC 29213, selecting agent VAN, passage 5
[33] = ATCC 29213, selecting agent VAN, passage 20
[34] = ATCC 29213, selecting agent VAN, passage 40
[35] = SA0077, selecting agent DAP, passage 20
[36] = SA0077, selecting agent DAP, passage 40
[37] = SA0077, selecting agent VAN, passage 0
[38] = SA0077, selecting agent VAN, passage 5
[39] = SA0077, selecting agent VAN, passage 20
[40] = SA0077, selecting agent VAN, passage 40
[41] = SA0736, selecting agent DAP, passage 5
[42] = SA0736, selecting agent DAP, passage 20
[43] = SA0736, selecting agent DAP, passage 40Y (yellow colonies)
[44] = SA0736, selecting agent VAN, passage 5
[45] = SA0736, selecting agent VAN, passage 20
[46] = SA0736, selecting agent VAN, passage 40
[47] = Table S1: SA0736 DAP-W (40 passages on daptomycin, white colonies)
[48] = Table S1: SA0736 DAP-Y (40 passages on daptomycin, yellow colonies)

## dalbavancin
S. aureus SA0085 [1]; [14]
  MIC: <0.016 µg/mL
S. aureus SA0085 [1]; [15]
  MIC: 0.125 µg/mL
S. aureus SA0085 [1]; [16]
  MIC: <0.016 µg/mL
S. aureus SA0085 [1]; [17]
  MIC: 0.06 µg/mL
S. aureus SA0085 [1]; [18]
  MIC: 0.5 µg/mL
S. aureus SA0085 [1]; [19]
  MIC: 0.25 µg/mL
S. aureus SA0085 [1]
  MIC values: 0.03 µg/mL
S. aureus SA0422 [2]; [20]
  MIC: 0.06 µg/mL
S. aureus SA0422 [2]; [21]
  MIC: 0.25 µg/mL
S. aureus SA0422 [2]; [22]
  MIC: 0.25 µg/mL
S. aureus SA0422 [2]; [23]
  MIC: 0.03 µg/mL
S. aureus SA0422 [2]; [24]
  MIC: 0.125 µg/mL
S. aureus SA0422 [2]; [25]
  MIC: 0.5 µg/mL
S. aureus SA0422 [2]; [26]
  MIC: 1 µg/mL
[3]
  MIC: ≤ 0.125 µg/mL
S. aureus RN4220 [4]; Table S1: RN4220 WT
  MIC values: 0.03 µg/mL
S. aureus RN4220 [4]; [27]
  MIC values: 0.03 µg/mL
S. aureus ATCC 29213 [5]; [28]
  MIC: 0.03 µg/mL
S. aureus ATCC 29213 [5]; [29]
  MIC: 0.06 µg/mL
S. aureus ATCC 29213 [5]; [30]
  MIC: 0.125 µg/mL
S. aureus ATCC 29213 [5]; [31]
  MIC: <0.016 µg/mL
S. aureus ATCC 29213 [5]; [32]
  MIC: <0.016 µg/mL
S. aureus ATCC 29213 [5]; [33]
  MIC: <0.016 µg/mL
S. aureus ATCC 29213 [5]; [34]
  MIC: 2 µg/mL
S. aureus SA0077 [6]; SA0077, selecting agent DAP, passage 5
  MIC: <0.03 µg/mL
S. aureus SA0077 [6]; [35]
  MIC: 0.125 µg/mL
S. aureus SA0077 [6]; [36]
  MIC: 0.125 µg/mL
S. aureus SA0077 [6]; [37]
  MIC: 0.03 µg/mL
S. aureus SA0077 [6]; [38]
  MIC: 0.25 µg/mL
S. aureus SA0077 [6]; [39]
  MIC: 1 µg/mL
S. aureus SA0077 [6]; [40]
  MIC: 2 µg/mL
S. aureus SA0077 [6]
  MIC values: 0.03 µg/mL
S. aureus SA0736 [7]; [41]
  MIC: 0.03 µg/mL
S. aureus SA0736 [7]; [42]
  MIC: 0.25 µg/mL
S. aureus SA0736 [7]; [43]
  MIC: 0.5 µg/mL
S. aureus SA0736 [7]; SA0736, selecting agent VAN, passage 0
  MIC: 0.03 µg/mL
S. aureus SA0736 [7]; [44]
  MIC: 0.125 µg/mL
S. aureus SA0736 [7]; [45]
  MIC: 1 µg/mL
S. aureus SA0736 [7]; [46]
  MIC: 1 µg/mL
S. aureus SA0736 [7]; [47]
  MIC values: 0.5 µg/mL
S. aureus SA0736 [7]; [48]
  MIC values: 0.5 µg/mL

## telavancin [TLV]
S. aureus SA0085 [1]; [14]
  MIC: 0.06 µg/mL
S. aureus SA0085 [1]; SA0085, selecting agent DAP, passage 20
  MIC: 0.06 µg/mL
S. aureus SA0085 [1]; [15]
  MIC: 0.25 µg/mL
S. aureus SA0085 [1]; [16]
  MIC: 0.06 µg/mL
S. aureus SA0085 [1]; [17]
  MIC: 0.06 µg/mL
S. aureus SA0085 [1]; [18]
  MIC: 0.25 µg/mL
S. aureus SA0085 [1]; [19]
  MIC: 0.25 µg/mL
S. aureus SA0085 [1]
  MIC values: 0.06 µg/mL
S. aureus SA0422 [2]; [20]
  MIC: 0.125 µg/mL
S. aureus SA0422 [2]; [21]
  MIC: 0.25 µg/mL
S. aureus SA0422 [2]; [22]
  MIC: 0.25 µg/mL
S. aureus SA0422 [2]; [23]
  MIC: 0.125 µg/mL
S. aureus SA0422 [2]; [24]
  MIC: 0.25 µg/mL
S. aureus SA0422 [2]; [25]
  MIC: 0.5 µg/mL
S. aureus SA0422 [2]; [26]
  MIC: 1 µg/mL
[3]
  MIC: ≤ 0.125 µg/mL
[3]; derivatives, end of daptomycin selection
  MIC by the end of daptomycin selection: 0.125 to 0.25 µg/mL
S. aureus RN4220 [4]; Table S1: RN4220 WT
  MIC values: 0.06 µg/mL
S. aureus RN4220 [4]; [27]
  MIC values: 0.06 µg/mL
S. aureus ATCC 29213 [5]; [28]
  MIC: <0.03 µg/mL
S. aureus ATCC 29213 [5]; [29]
  MIC: 0.125 µg/mL
S. aureus ATCC 29213 [5]; [30]
  MIC: 0.25 µg/mL
S. aureus ATCC 29213 [5]; [31]
  MIC: <0.03 µg/mL
S. aureus ATCC 29213 [5]; [32]
  MIC: <0.03 µg/mL
S. aureus ATCC 29213 [5]; [33]
  MIC: 0.125 µg/mL
S. aureus ATCC 29213 [5]; [34]
  MIC: 0.5 µg/mL
S. aureus SA0077 [6]; [35]
  MIC: 0.125 µg/mL
S. aureus SA0077 [6]; [36]
  MIC: 0.125 µg/mL
S. aureus SA0077 [6]; [37]
  MIC: 0.125 µg/mL
S. aureus SA0077 [6]; [38]
  MIC: 0.06 µg/mL
S. aureus SA0077 [6]; [39]
  MIC: 0.5 µg/mL
S. aureus SA0077 [6]; [40]
  MIC: 1 µg/mL
S. aureus SA0077 [6]
  MIC values: 0.03 µg/mL
S. aureus SA0736 [7]; [41]
  MIC: 0.125 µg/mL
S. aureus SA0736 [7]; [42]
  MIC: 0.125 µg/mL
S. aureus SA0736 [7]; SA0736, selecting agent DAP, passage 40W (white colonies)
  MIC: 0.125 µg/mL
S. aureus SA0736 [7]; [43]
  MIC: 0.125 µg/mL
S. aureus SA0736 [7]; [44]
  MIC: 0.25 µg/mL
S. aureus SA0736 [7]; [45]
  MIC: 0.5 µg/mL
S. aureus SA0736 [7]; [46]
  MIC: 0.5 µg/mL
S. aureus SA0736 [7]; [47]
  MIC values: .125 µg/mL
S. aureus SA0736 [7]; [48]
  MIC values: .125 µg/mL

## Cc1onc(-c2ccccc2)c1C(=O)N[C@@H]1C(=O)N2[C@@H]1SC(C)(C)[C@@H]2C(=O)O [Oxacillin]
S. aureus SA0085 [1]; SA0085, after 40 passages in antibiotic-free media (SCCmec excision)
  MIC after 40 passages in antibiotic-free media: 1 µg/mL (≈ 2.49 µM)
S. aureus SA0736 [8]; SA0736, read-out: MIC values
  MIC: 64 µg/mL (≈ 159 µM)
S. aureus SA0736 [8]; SA0736, read-out: MIC values, Table S1: SA0736 DAP-Y (40 passages on daptomycin, yellow colonies)
  MIC: 16 µg/mL (≈ 39.9 µM)
S. aureus RN4220 [4]; [27]
  MIC values: < 0.5 µg/mL
S. aureus RN4220 [9]
  MIC: < 0.5 µg/mL
S. aureus SA0085 [10]; SA0085, read-out: MIC before passaging, SA0085, before passaging in antibiotic-free media
  MIC: 512 µg/mL (≈ 1280 µM)
S. aureus SA0085 [10]; SA0085, read-out: MIC values
  MIC: 256 µg/mL (≈ 638 µM)
S. aureus SA0085 [10]; SA0085, read-out: MIC values, Table S1: SA0085 Abf (passages on antibiotic-free media)
  MIC: 1 µg/mL (≈ 2.49 µM)
S. aureus SA0085 [10]; SA0085, read-out: MIC values, Table S1: SA0085 VAN (derivative after 40 passages on vancomycin)
  MIC: 32 µg/mL (≈ 79.7 µM)
S. aureus ATCC 29213 [11]
  MIC: < 0.5 µg/mL
S. aureus SA0422 [12]; SA0422, read-out: MIC values
  MIC: 512 µg/mL (≈ 1280 µM)
S. aureus SA0422 [12]; SA0422, read-out: MIC values, Table S1: SA0422 DAP (derivative after 40 passages on daptomycin)
  MIC: 2 µg/mL (≈ 4.98 µM)
S. aureus SA0422 [12]; SA0422, read-out: MIC values, Table S1: SA0422 VAN (derivative after 40 passages on vancomycin)
  MIC: 256 µg/mL (≈ 638 µM)
S. aureus SA0077 [13]; SA0077, read-out: MIC values
  MIC: 512 µg/mL (≈ 1280 µM)
S. aureus SA0077 [13]; SA0077, read-out: MIC values, Table S1: SA0077 Abf (passages on antibiotic-free media)
  MIC: 128 µg/mL (≈ 319 µM)
S. aureus SA0077 [13]; SA0077, read-out: MIC values, Table S1: SA0077 DAP (derivative after 40 passages on daptomycin)
  MIC: 256 µg/mL (≈ 638 µM)
S. aureus SA0077 [13]; SA0077, read-out: MIC values, Table S1: SA0077 VAN (derivative after 40 passages on vancomycin)
  MIC: 32 µg/mL (≈ 79.7 µM)

Source: publication PMC10215302 (Antibiotics, 2023)
